Experimental data: patent US7005271B1, “Method for the determination of the prethrombotic state” (priority 1994, dated 2006)

What was measured:
U937 cells = test: DNA analysis by flow cytometry of U937 cells after apoptosis induction; type: cell-based; details: 40 μM 7β hydroxycholesterol
Description: U937 cells are grown in a humidified 5% CO2 atmosphere at 37° C., using RPMI 1640 medium with Glutamax-I, supplemented with 10% heat-inactivated fetal calf serum, 1 mM sodium pyruvate, non-essential amino acids and gentamicin icin at 5 μg/mL Cells are usually plated at an initial conentration of 1.10^5/ml. Apoptosis induction is achieved by 40 μM 7β hydroxycholesterol- or 5 μg/ml actinomycin D-treatment of U937 cells at 37° C. during 8 to 24 hours. Cells have to be seeded at 3 to 4.10^5 cells per ml 6 h before treatment. Cell supernatant is obtained by centrifugation of treated cells at 500 g during 7 min and CaCl2 is added to a final concentration of 10 mM before addition of 200 μl/well of supernatant. For each experiment, a control without 7β hydroxycholesterol or actinomycin D has to be performed and culture medium containing 10% fetal calf serum should also be tested. It has to be emphasized that the content of microparticles of 10% fetal calf serum was low, probably due to removal of most of the cell fragments at sterilizing ultrafiltration. The amount of captured microparticles is determined using the prothrombinase assay.
The Prothrombinase Activity is Correlated with DNA Analysis by Flow Cytometry (Table 2)

[1] = Storage stability of biotinylated annexin V; type: physicochemical
Description: After 90 min at 25° C., the reaction is stopped by adding IM Lysine/HCl to a final concentration of 10 mM. The biotinylated annexin V is finally dialysed overnight at 4° C. against Storage buffer.

Compound	% of hypodiploid DNA (U937 cells; 0 h treatment)	% of hypodiploid DNA (U937 cells; 8 h treatment)	% of hypodiploid DNA (U937 cells; 10 h treatment)	% of hypodiploid DNA (U937 cells; 12 h treatment)	% of hypodiploid DNA (U937 cells; 20 h treatment)	% of hypodiploid DNA (U937 cells; 22 h treatment)	storage stability ([1]; stored below 0° C.)	storage stability (anti-phospholipid potential) ([1]; stored for months at −80° C.)
CC(C)CCC[C@@H](C)[C@H]1CC[C@H]2[C@@H]3[C@@H](O)C=C4C[C@@H](O)CC[C@]4(C)[C@H]3CC[C@]12C [7β-hydroxycholesterol]	2.75%	9.43%	12.58%	18.31%	35.03%	41.54%		
annexin-V^Bi: Human placenta annexin V biotinylated with biotin-X-OSu, insolubilized onto streptavidin-coated plates as capture receptor							stable for weeks	without detectable loss of anti-phospholipid potential
